Measured values from PMC3943433 (Journal of medicinal chemistry, 2013).
Like-named read-outs stand apart in the source and are kept apart here.

Experiments:
[1] = test system: E. coli DH10B expressing blaSHV-1; experiment: MIC by Mueller-Hinton agar dilution; type: cell-based; conditions: E. coli blaSHV-1; inhibitor in the presence of 50 µg/mL ampicillin
[2] = test system: E. coli DH10B expressing blaSHV K234A; type: cell-based; conditions: inhibitor in the presence of 50 µg/mL ampicillin
[3] = test system: E. coli DH10B; type: cell-based; conditions: inhibitor in the presence of 50 µg/mL ampicillin
[4] = test system: E. coli DH10B expressing blaSHV K234R; type: cell-based; conditions: inhibitor in the presence of 50 µg/mL ampicillin
[5] = molecular target: T1, SHV K234R β-lactamase (Klebsiella pneumoniae, UniProt P0AD64, K230R); experiment: Steady-state kinetics with β-lactam substrates; type: biochemical; conditions: K234R relative to SHV-1, from kcat/Km (eq 3)
[6] = test system: E. coli DH10B expressing blaSHV K234X (other 16 amino acid substitutions); experiment: MIC by Mueller-Hinton agar dilution; type: cell-based; conditions: Escherichia coli, E. coli blaSHV K234X (other 16 substitutions); β-lactam alone
[7] = molecular target: T1, SHV K234R β-lactamase; experiment: Far-UV circular dichroism and thermal denaturation in the presence of inhibitors; conditions: for ΔHVH: K234R 10 µM with 50 µM inhibitor, van't Hoff plot; for effect on secondary structure (far UV CD): K234R 10 µM, 50 µM inhibitor
[8] = molecular target: T2, SHV-1 β-lactamase (Klebsiella pneumoniae, UniProt P0AD64)
[9] = test system: O=C(Cc1cccs1)N[C@@H]1C(=O)N2C(C(=O)O)=C(/C=C/c3ccc([N+](=O)[O-])cc3[N+](=O)[O-])CS[C@H]12; experiment: Steady-state kinetics with β-lactam substrates; type: biochemical, Klebsiella pneumoniae; conditions: other: SHV-1, substrate, 10 mM PBS pH 7.4, room temperature
[10] = test system: CC(=O)OCC1=C(C(=O)O)N2C(=O)[C@@H](NC(=O)Cc3cccs3)[C@H]2SC1; experiment: Steady-state kinetics with β-lactam substrates; type: biochemical, Klebsiella pneumoniae; conditions: other: SHV-1, substrate, 10 mM PBS pH 7.4, room temperature
[11] = test system: CCN1CCN(C(=O)N[C@@H](C(=O)N[C@@H]2C(=O)N3[C@@H]2SC(C)(C)[C@@H]3C(=O)O)c2ccccc2)C(=O)C1=O; experiment: Steady-state kinetics with β-lactam substrates; type: biochemical, Klebsiella pneumoniae; conditions: other: SHV-1, substrate, 10 mM PBS pH 7.4, room temperature
[12] = molecular target: T1, SHV K234R β-lactamase; experiment: Ki by direct competition assay with nitrocefin; type: biochemical; conditions: for fold lower Ki for K234R relative to SHV-1: K234R vs SHV-1
[13] = molecular target: T2, SHV-1 β-lactamase; type: biochemical
[14] = SHV-1 10 µM with 50 µM inhibitor, van't Hoff plot

ampicillin/sulbactam [amp/ sul]
MIC [1]: 512 µg/mL
MIC [2]: <0.06 µg/mL
MIC [3]: <0.06 µg/mL
MIC [4]: 64 µg/mL

CCN1CCN(C(=O)N[C@@H](C(=O)N[C@@H]2C(=O)N3[C@@H]2SC(C)(C)[C@@H]3C(=O)O)c2ccccc2)C(=O)C1=O [pip, piperacillin]
ΔΔGcat [5]: +0.33 kcal/mol
MIC [6]: ≤ 8 µg/mL

ampicillin/clavulanate [amp/ clav]
MIC [1]: 4 µg/mL
MIC [2]: <0.06 µg/mL
MIC [3]: <0.06 µg/mL
MIC [4]: 16 µg/mL

C[C@]1(Cn2ccnn2)[C@H](C(=O)O)N2C(=O)C[C@H]2S1(=O)=O [Tazobactam, tazobactam]
ΔHVH [7]: 114 kcal/mol
effect on secondary structure (far UV CD) [7]: affect the secondary structure
ΔHVH [8, 14]: 149 kcal/mol
effect on secondary structure (far UV CD) ([8]; SHV-1 10 µM, 50 µM inhibitor): not SHV-1

SHV-1 β-lactamase (Klebsiella pneumoniae)
Km [9]: 24.7 ± 5 µM
kcat [9]: 348 ± 21.5 s⁻¹
kcat/Km [9]: 1.41e+07 ± 220000 M⁻¹ s⁻¹
Km [10]: 48.9 ± 11.2 µM
kcat [10]: 42.6 ± 3.4 s⁻¹
kcat/Km [10]: 870000 ± 300000 M⁻¹ s⁻¹
Km [11]: 74.6 ± 11.7 µM
kcat [11]: 1180 ± 65 s⁻¹
kcat/Km [11]: 1.58e+07 ± 600000 M⁻¹ s⁻¹

ampicillin/tazobactam [amp/ tazo]
MIC [1]: 128 µg/mL
MIC [2]: <0.06 µg/mL
MIC [3]: <0.06 µg/mL
MIC [4]: 16 µg/mL

CC1(C)S[C@@H]2[C@H](NC(=O)[C@H](N)c3ccccc3)C(=O)N2[C@H]1C(=O)O [amp, ampicillin]
MIC [6]: ≤ 4 µg/mL

CC1(C)[C@H](C(=O)O)N2C(=O)C[C@H]2S1(=O)=O [Sulbactam, sulbactam]
effect on secondary structure (far UV CD) [7]: affect the secondary structure
effect on secondary structure (far UV CD) [8]: not SHV-1
ΔHVH [8]: 183 kcal/mol
ΔΔGu [8]: +0.07 kcal/mol

O=C(O)[C@H]1/C(=C/CO)O[C@@H]2CC(=O)N21 [Clavulanate, clavulanate]
ΔHVH [7]: 68 kcal/mol
effect on secondary structure (far UV CD) [7]: affects the secondary structure of both enzymes
effect on secondary structure (far UV CD) [8]: affects the secondary structure of both enzymes
ΔHVH [8]: 113 kcal/mol
ΔΔGu [8]: +0.28 kcal/mol

N[C@@H](C(=O)N[C@@H](Cc1cccc(C(=O)O)c1)B(O)O)c1ccccc1 [Chiral Ampicillin BATSI]
ΔHVH [7]: 119 kcal/mol
increase of melting temperature ([7]; K234R with inhibitor vs apo): 6.6 °C
fold lower Ki for K234R relative to SHV-1 [12]: 23 fold
ΔHVH [8, 14]: 143 kcal/mol

O=C(Cc1cccs1)N[C@@H](Cc1cccc(C(=O)O)c1)B(O)O [Chiral Cephalothin BATSI]
fold lower Ki than the achiral BATSI [13]: 44 fold
fold difference in Ki, achiral vs chiral cephalothin BATSI ([12]; K234R): 5000 fold
fold lower Ki for K234R relative to SHV-1 [12]: 38 fold

O=C(Cc1cccs1)NCB(O)O [Achiral Cephalothin BATSI]
ΔHVH [7]: 100 kcal/mol
effect on secondary structure (far UV CD) [7]: affect the secondary structure
ΔHVH [8, 14]: 160 kcal/mol

O=C(Cc1cccs1)N[C@@H]1C(=O)N2C(C(=O)O)=C(/C=C/c3ccc([N+](=O)[O-])cc3[N+](=O)[O-])CS[C@H]12 [Nitrocefin, nitrocefin]
ΔΔGcat [5]: +0.70 kcal/mol

CC(=O)OCC1=C(C(=O)O)N2C(=O)[C@@H](NC(=O)Cc3cccs3)[C@H]2SC1 [thin, cephalothin]
ΔΔGcat [5]: +1.00 kcal/mol
